Common to all, as to assay type: cell-based
For one test, the target named is T1, Human PPARα (Homo sapiens, UniProt Q07869).
T1 construct: host or cells: proprietary non-human mammalian cells
T1 sequence (Q07869 1-468): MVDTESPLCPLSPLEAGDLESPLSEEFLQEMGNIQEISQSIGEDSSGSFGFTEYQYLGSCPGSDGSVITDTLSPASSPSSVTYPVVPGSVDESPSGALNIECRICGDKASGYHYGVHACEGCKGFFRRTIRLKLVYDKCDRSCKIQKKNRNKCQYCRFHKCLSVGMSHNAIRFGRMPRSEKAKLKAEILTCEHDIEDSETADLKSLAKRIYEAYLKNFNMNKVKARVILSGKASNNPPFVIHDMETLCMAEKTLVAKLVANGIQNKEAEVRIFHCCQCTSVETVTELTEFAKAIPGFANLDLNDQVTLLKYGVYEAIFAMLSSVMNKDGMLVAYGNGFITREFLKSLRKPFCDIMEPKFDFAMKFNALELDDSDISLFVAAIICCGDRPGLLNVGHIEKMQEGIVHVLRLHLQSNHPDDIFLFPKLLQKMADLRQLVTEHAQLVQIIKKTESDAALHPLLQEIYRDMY
The test can be described thus: Human PPARα Reporter Assay (luciferase, Indigo Biosciences). The following applies: antagonist mode, reporter cells, overnight incubation. How it is done:
Human PPARα Reporter Assay The screening of test compounds for agonist or antagonist activities against human PPARα receptors was performed using a commercial kit, Human PPARα Reporter Assay System (Indigo Biosciences, Cat. #IB00111). This nuclear receptor assay system utilizes proprietary non-human mammalian cells engineered to provide constitutive, high-level expression of Human PPARα. Because these cells incorporate a PPARα-responsive luciferase reporter gene, quantifying expressed luciferase activity provides a sensitive surrogate measure of PPARα activity in the treated cells. The primary application of this reporter assay system is in the screening of test samples to quantify any functional activity, either agonist or antagonist, that they may exert against human PPARα. […] Briefly, reporter cells are dispensed into wells of the assay plate and then immediately dosed with test compounds. Following an overnight incubation, the treatment media is discarded and Luciferase Detection Reagent (LDR) is added. The intensity of light emission from the ensuing luciferase reaction provides a sensitive measure that is directly proportional to the relative level of PPARα activation in the reporter cells.

In the next test the target is T2, human PPAR γ (Homo sapiens, UniProt P37231).
T2 sequence (P37231 1-505): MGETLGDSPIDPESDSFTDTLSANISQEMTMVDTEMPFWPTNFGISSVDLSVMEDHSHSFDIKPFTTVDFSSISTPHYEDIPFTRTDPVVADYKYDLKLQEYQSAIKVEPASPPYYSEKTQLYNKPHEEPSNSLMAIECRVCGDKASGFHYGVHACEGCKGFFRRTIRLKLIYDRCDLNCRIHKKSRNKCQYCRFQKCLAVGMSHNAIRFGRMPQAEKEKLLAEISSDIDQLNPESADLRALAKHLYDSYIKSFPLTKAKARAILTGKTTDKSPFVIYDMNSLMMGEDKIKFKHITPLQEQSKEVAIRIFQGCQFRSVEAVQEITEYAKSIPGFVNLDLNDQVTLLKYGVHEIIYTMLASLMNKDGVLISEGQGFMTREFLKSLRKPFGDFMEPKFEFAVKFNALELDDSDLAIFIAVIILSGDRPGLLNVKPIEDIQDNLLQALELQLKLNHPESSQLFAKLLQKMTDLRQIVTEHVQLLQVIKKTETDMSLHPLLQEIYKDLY
Description: Human PPARγ reporter assay (Indigo Biosciences kit). The following applies: antagonist mode, agonist at ~EC80; read-out: PPARγ. The method, then: (§1) Target Selectivity Assays
(§2) To determine species selectivity, a Mouse PPARα Reporter Assay System was used (Indigo Biosciences, Cat. #M00111). Activity of test compounds to antagonize or agonize other isoforms of human PPAR, for example β/δ and γ, were assessed using the corresponding kits from Indigo Biosciences (Cat. #IB00121 and #IB00101, respectively). In addition to PPAR activity, compounds were also screened for activity against other nuclear hormone receptors including Estrogen Receptor β, Glucocorticoid Receptor and Thyroid Receptor β using commercially available kits (Indigo Biosciences, Cat. #IB00411, IB00201 and IB01101, respectively). Each assay system from Indigo Biosciences uses technology analogous to the human PPARα kit, with the variance being that the cells used for each assay were engineered to over-express the receptor of interest. In addition, the appropriate receptor agonist (included with each kit) was used at ˜EC80 for assays in which antagonist potency was being assessed.

In the next test the target is T3, human PPAR β/δ (Homo sapiens, UniProt Q03181).
T3 construct: host or cells: engineered reporter cells (analogous to the PPARα kit)
T3 sequence (Q03181 1-441): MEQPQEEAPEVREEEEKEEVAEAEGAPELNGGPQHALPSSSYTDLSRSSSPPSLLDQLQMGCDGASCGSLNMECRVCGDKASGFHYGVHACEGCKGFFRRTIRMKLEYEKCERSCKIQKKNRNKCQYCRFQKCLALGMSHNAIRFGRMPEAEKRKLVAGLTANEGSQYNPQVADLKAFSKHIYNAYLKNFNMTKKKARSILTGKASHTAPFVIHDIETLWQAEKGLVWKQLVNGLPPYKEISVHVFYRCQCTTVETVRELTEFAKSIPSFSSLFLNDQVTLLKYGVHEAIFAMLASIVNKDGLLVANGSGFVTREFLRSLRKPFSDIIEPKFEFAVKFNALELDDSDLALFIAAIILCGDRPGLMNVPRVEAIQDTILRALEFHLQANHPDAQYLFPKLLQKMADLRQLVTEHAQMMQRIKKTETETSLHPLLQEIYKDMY
Description: Human PPAR β/δ reporter assay (luciferase, Indigo Biosciences kit). As to conditions: antagonist mode, agonist at ~EC80; read-out: PPARδ Luciferase IC50. How it is done:
as §1, §2

pIC50: −log10 of the molar value.

Consider `CCOc1ccc(-c2ccc(CCCc3nn(-c4ccc(C(F)(F)F)cc4)c(=O)n3-c3cccc(F)c3)cc2)cc1CC(=O)O` [Example 21], for which the pIC50 was 7.52 against Human PPARα, 4.26 on human PPAR γ and 7.17 at human PPAR β/δ.
Regarding `CCOc1ccc(-c2ccc(CCCc3nn(-c4ccc(C(F)(F)F)cc4)c(=O)n3-c3cc(F)ccc3F)cc2)cc1CC(=O)O` [Example 22], the pIC50 at Human PPARα was 7.06; at human PPAR γ, 4.35; at human PPAR β/δ, 7.21.
Regarding `CCOc1ccc(-c2ccc(CCCc3nn(-c4ccc(C(F)(F)F)cc4)c(=O)n3-c3ccccc3CC)cc2)cc1CC(=O)O` [Example 25, 2-(4-ethoxy-4′-(3-(4-(2-ethylphenyl)-5-oxo-1-(4-(trifluoromethyl)phenyl)-4,5-dihydro-1H-1,2,4-triazol-3-yl)propyl)-[1,1′-biphenyl]-3-yl)acetic acid], the pIC50 is 6.46 against Human PPARα, 4.54 on human PPAR γ and 7.00 on human PPAR β/δ.
The corresponding values for `CCOc1ccc(-c2ccc(CCCc3nn(-c4ccc(C(C)C)cc4)c(=O)n3-c3ccccc3Cl)cc2)cc1CC(=O)O` [Example 27, 2-(4′-(3-(4-(2-chlorophenyl)-1-(4-isopropylphenyl)-5-oxo-4,5-dihydro-1H-1,2,4-triazol-3-yl)propyl)-4-ethoxy-[1,1′-biphenyl-]-3-yl)acetic acid] are 7.55, 4.54 and 6.63.
The corresponding values for `CCOc1ccc(-c2ccc(CCCc3nn(-c4ccc(C(C)(C)C)cc4)c(=O)n3-c3c(Cl)cccc3Cl)cc2)cc1CC(=O)O` [Example 28] are 6.78, 4.48 and 6.10.
On to `CCOc1ccc(-c2cccc(CCCc3nn(-c4ccc(C(F)(F)F)cc4)c(=O)n3-c3ccccc3F)c2)cc1CC(=O)O` [Example 30, 2-(4-ethoxy-3′-(3-(4-(2-fluorophenyl)-5-oxo-1-(4-(trifluoromethyl)phenyl)-4,5-dihydro-1H-1,2,4-triazol-3-yl)propyl)-[1,1′-biphenyl]-3-yl)acetic acid], for which the pIC50 against Human PPARα was 6.41; at human PPAR γ, 4.56; on human PPAR β/δ it was 7.02.
With `CCOc1ccc(-c2cccc(CCCc3nn(-c4ccc(C(F)(F)F)cc4)c(=O)n3C(C)C)c2)cc1CC(=O)O` [Example 31], the pIC50 was 6.70 at Human PPARα, 4.24 at human PPAR γ and 6.13 on human PPAR β/δ.
As to `CCOc1ccc(-c2ccc(CCCc3nn(-c4ccc(C(F)(F)F)cc4Cl)c(=O)n3-c3ccccc3F)cc2)cc1CC(=O)O` [Example 33, 2-(4-ethoxy-4′-(3-(4-(2-fluorophenyl)-5-oxo-1-(2-chloro-4-(trifluoromethyl)phenyl)-4,5-dihydro-1H-1,2,4-triazol-3-yl)propyl)-[1,1′-biphenyl]-3-yl)acetic acid], the results for the pIC50 against Human PPARα, at human PPAR γ and at human PPAR β/δ were 6.86, 4.49 and 6.13, respectively.
Take `CCCOc1ccc(-c2ccc(CCCc3nn(-c4ccc(C(F)(F)F)cc4)c(=O)n3-c3ccccc3F)cc2)cc1CC(=O)O` [Example 39, 2-(4-propoxy-4′-(3-(4-(2-fluorophenyl)-5-oxo-1-(4-(trifluoromethyl)phenyl)-4,5-dihydro-1H-1,2,4-triazol-3-yl)propyl)-[1,1′-biphenyl-]-3-yl)acetic acid]: the results for the pIC50 on Human PPARα, at human PPAR γ and on human PPAR β/δ were 6.95, 4.70 and 7.47, respectively.
